# Source: US20230220021A1, “CYCLIC PEPTIDE INHIBITORS OF PSD-95 AND USES THEREOF” (University of Copenhagen, priority 2020, published 2023)
# Where a SMILES comes first, the peptide text is derived from it. [ ]: non-standard residue; d: D form.
# Molecular target: T1, PSD-95-PDZ2 (Homo sapiens, UniProt P78352)
# T1 construct: 7xHis (N); made in house; host or cells: Escherichia coli B21 pLys (for the mutants, 'as previously described')
# Assay: Fluorescence polarization (FP) competition assay against cyclic nNOS TAMRA probe
# Format: binding
# Details: FP competition, cyclic nNOS TAMRA probe; mean of triplicates; N.B. = not binding; read-out: Ki
# T1 sequence (P78352 160-246 limits assumed): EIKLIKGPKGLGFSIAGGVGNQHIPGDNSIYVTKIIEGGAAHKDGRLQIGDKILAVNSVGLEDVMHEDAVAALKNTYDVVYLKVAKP
row,Ki [nM],SMILES
1,9000,CC[C@H](C)[C@@H]1NC(=O)[C@H]([C@@H](C)O)NC(=O)[C@H](CCCCN)NC(=O)[C@@H]2CCCN2C(=O)[C@H]([C@@H](C)O)NC(=O)CNC(=O)[C@H](CC(=O)O)NC(=O)CNC(=O)[C@H]([C@@H](C)O)NC(=O)[C@H](Cc2ccccc2)NC(=O)[C@H]([C@@H](C)O)NC(=O)[C@H]([C@@H](C)O)NC(=O)[C@H](CCC(=O)O)NC(=O)[C@H](CC(C)C)NC(=O)[C@H](Cc2c[nH]cn2)NC(=O)[C@H]([C@@H](C)O)NC(=O)[C@H](CCC(N)=O)NC(=O)CNC(=O)[C@H]2CCCN2C(=O)[C@H](CCC(N)=O)NC(=O)[C@H]([C@@H](C)O)NC(=O)[C@H](C(C)C)NC(=O)[C@@H](CCCNC(=N)N)NC1=O [compound 126]
2,1830,CC[C@H](C)[C@@H]1NC(=O)[C@H]([C@@H](C)O)NC(=O)[C@H](CCCCN)NC(=O)[C@@H]2CCCN2C(=O)[C@H]([C@@H](C)O)NC(=O)CNC(=O)[C@H](CC(=O)O)NC(=O)CNC(=O)[C@H]([C@@H](C)O)NC(=O)[C@H](Cc2ccccc2)NC(=O)[C@H]([C@@H](C)O)NC(=O)[C@H]([C@@H](C)O)NC(=O)[C@H](CCC(=O)O)NC(=O)[C@H](CC(C)C)NC(=O)[C@H](Cc2c[nH]cn2)NC(=O)[C@H]([C@@H](C)O)NC(=O)[C@H](CCC(N)=O)NC(=O)CNC(=O)[C@H]2CCCN2C(=O)[C@H](CCC(N)=O)NC(=O)[C@@H]([C@H](C)O)NC(=O)[C@H](C(C)C)NC(=O)[C@H](CCCNC(=N)N)NC1=O [compound 128]
3,11100,CC[C@H](C)[C@@H]1NC(=O)[C@H]([C@@H](C)O)NC(=O)[C@H](CCCCN)NC(=O)[C@@H]2CCCN2C(=O)[C@H]([C@@H](C)O)NC(=O)CNC(=O)[C@H](CC(=O)O)NC(=O)CNC(=O)[C@H]([C@@H](C)O)NC(=O)[C@H](Cc2ccccc2)NC(=O)[C@H]([C@@H](C)O)NC(=O)[C@H]([C@@H](C)O)NC(=O)[C@H](CCC(=O)O)NC(=O)[C@H](CC(C)C)NC(=O)[C@H](Cc2c[nH]cn2)NC(=O)[C@H]([C@@H](C)O)NC(=O)[C@H](CCC(N)=O)NC(=O)CNC(=O)[C@H]2CCCN2C(=O)[C@@H](CCC(N)=O)NC(=O)[C@H]([C@@H](C)O)NC(=O)[C@H](C(C)C)NC(=O)[C@H](CCCNC(=N)N)NC1=O [compound 129]
4,650,CC[C@H](C)[C@@H]1NC(=O)[C@H]([C@@H](C)O)NC(=O)[C@H](CCCCN)NC(=O)[C@@H]2CCCN2C(=O)[C@H](CC(=O)O)NC(=O)CNC(=O)[C@H](CC(=O)O)NC(=O)CNC(=O)[C@H](Cc2c[nH]c3ccccc23)NC(=O)[C@H](Cc2ccccc2)NC(=O)[C@H]([C@@H](C)O)NC(=O)[C@H]([C@@H](C)O)NC(=O)[C@H](CCC(=O)O)NC(=O)[C@H](CC(C)C)NC(=O)[C@H](Cc2c[nH]cn2)NC(=O)[C@H]([C@@H](C)O)NC(=O)[C@H](CCC(N)=O)NC(=O)CNC(=O)[C@H]2CCCN2C(=O)[C@H](CCC(N)=O)NC(=O)[C@H]([C@@H](C)O)NC(=O)[C@H](C(C)C)NC(=O)[C@H](CCCNC(=N)N)NC1=O [compound 130] (cyclo(THLETTFWGDGDPKTIRVTQ[dP]GQ))
5,950,CC[C@H](C)[C@@H]1NC(=O)[C@H]([C@@H](C)O)NC(=O)[C@H](CCCCN)NC(=O)[C@@H]2CCCN2C(=O)[C@H]([C@@H](C)O)NC(=O)[C@@H]2CCCN2C(=O)[C@H](CC(=O)O)NC(=O)CNC(=O)[C@H](Cc2c[nH]c3ccccc23)NC(=O)[C@H](Cc2ccccc2)NC(=O)[C@H]([C@@H](C)O)NC(=O)[C@H]([C@@H](C)O)NC(=O)[C@H](CCC(=O)O)NC(=O)[C@H](CC(C)C)NC(=O)[C@H](Cc2c[nH]cn2)NC(=O)[C@H]([C@@H](C)O)NC(=O)[C@H](CCC(N)=O)NC(=O)CNC(=O)[C@H]2CCCN2C(=O)[C@H](CCC(N)=O)NC(=O)[C@H]([C@@H](C)O)NC(=O)[C@H](C(C)C)NC(=O)[C@H](CCCNC(=N)N)NC1=O [compound 131] (cyclo(THLETTFWGDPTPKTIRVTQ[dP]GQ))

# Second part, the molecule before the results:
row,SMILES,Ki [nM]
1,CC[C@H](C)[C@@H]1NC(=O)[C@H]([C@@H](C)O)NC(=O)[C@H](CCCCN)N(C)C(=O)[C@@H]2CCCN2C(=O)[C@H]([C@@H](C)O)NC(=O)CNC(=O)[C@H](CC(=O)O)NC(=O)CNC(=O)[C@H]([C@@H](C)O)NC(=O)[C@H](Cc2ccccc2)NC(=O)[C@H]([C@@H](C)O)NC(=O)[C@H]([C@@H](C)O)NC(=O)[C@H](CCC(=O)O)NC(=O)[C@H](CC(C)C)NC(=O)[C@H](Cc2c[nH]cn2)NC(=O)[C@H]([C@@H](C)O)NC(=O)[C@H](CCC(N)=O)NC(=O)CNC(=O)[C@H]2CCCN2C(=O)[C@H](CCC(N)=O)NC(=O)[C@H]([C@@H](C)O)NC(=O)[C@H](C(C)C)NC(=O)[C@H](CCCNC(=N)N)NC1=O [compound 96],480
2,CC[C@H](C)[C@@H]1NC(=O)[C@H]([C@@H](C)O)NC(=O)[C@H](CCCCN)NC(=O)[C@@H]2CCCN2C(=O)[C@H]([C@@H](C)O)NC(=O)CNC(=O)[C@H](CC(=O)O)NC(=O)CNC(=O)[C@H]([C@@H](C)O)NC(=O)[C@H](Cc2ccccc2)NC(=O)[C@H]([C@@H](C)O)NC(=O)[C@H]([C@@H](C)O)NC(=O)[C@H](CCC(=O)O)NC(=O)[C@H](CC(C)C)NC(=O)[C@H](Cc2c[nH]cn2)NC(=O)[C@H]([C@@H](C)O)NC(=O)[C@H](CCC(N)=O)NC(=O)CNC(=O)[C@H]2CCCN2C(=O)[C@H](CCC(N)=O)N(C)C(=O)[C@H]([C@@H](C)O)NC(=O)[C@H](C(C)C)NC(=O)[C@H](CCCNC(=N)N)NC1=O [compound 102],2200
3,CC[C@H](C)[C@@H]1NC(=O)[C@H]([C@@H](C)O)NC(=O)[C@H](CCCCN)NC(=O)[C@@H]2CCCN2C(=O)[C@H]([C@@H](C)O)NC(=O)CNC(=O)[C@H](CC(=O)O)NC(=O)CNC(=O)[C@H]([C@@H](C)O)NC(=O)[C@H](Cc2ccccc2)NC(=O)[C@H]([C@@H](C)O)NC(=O)[C@H]([C@@H](C)O)NC(=O)[C@H](CCC(=O)O)NC(=O)[C@H](CC(C)C)NC(=O)[C@H](Cc2c[nH]cn2)NC(=O)[C@@H]([C@H](C)O)NC(=O)[C@H](CCC(N)=O)NC(=O)CNC(=O)[C@H]2CCCN2C(=O)[C@H](CCC(N)=O)NC(=O)[C@H]([C@@H](C)O)NC(=O)[C@H](C(C)C)NC(=O)[C@H](CCCNC(=N)N)NC1=O [compound 112],14600
4,CC[C@H](C)[C@@H]1NC(=O)[C@H]([C@@H](C)O)NC(=O)[C@H](CCCCN)NC(=O)[C@@H]2CCCN2C(=O)[C@H]([C@@H](C)O)NC(=O)CNC(=O)[C@H](CC(=O)O)NC(=O)CNC(=O)[C@H]([C@@H](C)O)NC(=O)[C@H](Cc2ccccc2)NC(=O)[C@H]([C@@H](C)O)NC(=O)[C@H]([C@@H](C)O)NC(=O)[C@H](CCC(=O)O)NC(=O)[C@H](CC(C)C)NC(=O)[C@@H](Cc2c[nH]cn2)NC(=O)[C@H]([C@@H](C)O)NC(=O)[C@H](CCC(N)=O)NC(=O)CNC(=O)[C@H]2CCCN2C(=O)[C@H](CCC(N)=O)NC(=O)[C@H]([C@@H](C)O)NC(=O)[C@H](C(C)C)NC(=O)[C@H](CCCNC(=N)N)NC1=O [compound 113],13100
5,CC[C@H](C)[C@@H]1NC(=O)[C@H]([C@@H](C)O)NC(=O)[C@H](CCCCN)NC(=O)[C@@H]2CCCN2C(=O)[C@H]([C@@H](C)O)NC(=O)CNC(=O)[C@@H](CC(=O)O)NC(=O)CNC(=O)[C@H]([C@@H](C)O)NC(=O)[C@H](Cc2ccccc2)NC(=O)[C@H]([C@@H](C)O)NC(=O)[C@H]([C@@H](C)O)NC(=O)[C@H](CCC(=O)O)NC(=O)[C@H](CC(C)C)NC(=O)[C@H](Cc2c[nH]cn2)NC(=O)[C@H]([C@@H](C)O)NC(=O)[C@H](CCC(N)=O)NC(=O)CNC(=O)[C@H]2CCCN2C(=O)[C@H](CCC(N)=O)NC(=O)[C@H]([C@@H](C)O)NC(=O)[C@H](C(C)C)NC(=O)[C@H](CCCNC(=N)N)NC1=O [compound 120],590
6,CC[C@H](C)[C@@H]1NC(=O)[C@H]([C@@H](C)O)NC(=O)[C@H](CCCCN)NC(=O)[C@@H]2CCCN2C(=O)[C@@H]([C@H](C)O)NC(=O)CNC(=O)[C@H](CC(=O)O)NC(=O)CNC(=O)[C@H]([C@@H](C)O)NC(=O)[C@H](Cc2ccccc2)NC(=O)[C@H]([C@@H](C)O)NC(=O)[C@H]([C@@H](C)O)NC(=O)[C@H](CCC(=O)O)NC(=O)[C@H](CC(C)C)NC(=O)[C@H](Cc2c[nH]cn2)NC(=O)[C@H]([C@@H](C)O)NC(=O)[C@H](CCC(N)=O)NC(=O)CNC(=O)[C@H]2CCCN2C(=O)[C@H](CCC(N)=O)NC(=O)[C@H]([C@@H](C)O)NC(=O)[C@H](C(C)C)NC(=O)[C@H](CCCNC(=N)N)NC1=O [compound 121],2000
7,CC[C@H](C)[C@@H]1NC(=O)[C@H]([C@@H](C)O)NC(=O)[C@H](CCCCN)NC(=O)[C@H]2CCCN2C(=O)[C@H]([C@@H](C)O)NC(=O)CNC(=O)[C@H](CC(=O)O)NC(=O)CNC(=O)[C@H]([C@@H](C)O)NC(=O)[C@H](Cc2ccccc2)NC(=O)[C@H]([C@@H](C)O)NC(=O)[C@H]([C@@H](C)O)NC(=O)[C@H](CCC(=O)O)NC(=O)[C@H](CC(C)C)NC(=O)[C@H](Cc2c[nH]cn2)NC(=O)[C@H]([C@@H](C)O)NC(=O)[C@H](CCC(N)=O)NC(=O)CNC(=O)[C@H]2CCCN2C(=O)[C@H](CCC(N)=O)NC(=O)[C@H]([C@@H](C)O)NC(=O)[C@H](C(C)C)NC(=O)[C@H](CCCNC(=N)N)NC1=O [compound 122],6700
8,CC[C@H](C)[C@@H]1NC(=O)[C@H]([C@@H](C)O)NC(=O)[C@@H](CCCCN)NC(=O)[C@@H]2CCCN2C(=O)[C@H]([C@@H](C)O)NC(=O)CNC(=O)[C@H](CC(=O)O)NC(=O)CNC(=O)[C@H]([C@@H](C)O)NC(=O)[C@H](Cc2ccccc2)NC(=O)[C@H]([C@@H](C)O)NC(=O)[C@H]([C@@H](C)O)NC(=O)[C@H](CCC(=O)O)NC(=O)[C@H](CC(C)C)NC(=O)[C@H](Cc2c[nH]cn2)NC(=O)[C@H]([C@@H](C)O)NC(=O)[C@H](CCC(N)=O)NC(=O)CNC(=O)[C@H]2CCCN2C(=O)[C@H](CCC(N)=O)NC(=O)[C@H]([C@@H](C)O)NC(=O)[C@H](C(C)C)NC(=O)[C@H](CCCNC(=N)N)NC1=O [compound 123],23200
